Test results as given in patent US20230080811A1 (priority 2020, published 2023).
Counter-ions that a name gives are not always drawn.

Test: In vivo pharmacokinetic investigation, subcutaneous injection, plasma by LC-MS
Parameters: species or system rat
Conditions: in rats, inferred from PK and duration of efficacy
Method: The obtained pharmaceutical composition was subcutaneously injected into male SD rats. Blood was collected at predetermined time points. The content of the drug in plasma was determined by LC-MS method, and the pharmacokinetics in vivo was investigated.
Experimental animals: male SD rats with a weight of 200-300 g, source: […] OF MATERIA MEDICA, CHINESE ACADEMY OF SCIENCES;
Experimental grouping: Rats were randomly divided into groups according to the following table, with 6 rats in each group;
Experimental procedure: Rats were subcutaneously injected, and at a predetermined time point, 0.5 ml of blood was collected from the orbit of the rat and placed in a centrifuge tube with heparin sodium anticoagulation. The tube was centrifuged at 3000 rpm for 10 min to separate the plasma, and the plasma concentration was detected by LC-MS method.
The pharmacokinetic (PK) parameters of the compositions were calculated, and the results were statistically analyzed by t-test.

CCCN1CCCC[C@H]1C(=O)Nc1c(C)cccc1C [ropivacaine hydrochloride]
onset concentration: about 20 ng/ml
